# Reference: the NIST ThermoML archive (doi:10.1007/s10765-006-0119-1)
# Numbers after ± are expanded uncertainties.
# Settings: 101.33 kPa, Liquid, Oscillating Cup
compound,measurement,setting,value
O=[N+]([O-])[O-].[Na+] [sodium nitrate],viscosity,590.3 K,2.854 ± 0.11 mPa·s
same,viscosity,599.3 K,2.74 ± 0.11 mPa·s
same,viscosity,600 K,2.658 ± 0.11 mPa·s
same,viscosity,600.3 K,2.638 ± 0.11 mPa·s
same,viscosity,613.2 K,2.437 ± 0.098 mPa·s
same,viscosity,640.9 K,2.155 ± 0.086 mPa·s
same,viscosity,653.6 K,2.05 ± 0.082 mPa·s
same,viscosity,673.2 K,1.811 ± 0.073 mPa·s
same,viscosity,676.8 K,1.768 ± 0.071 mPa·s
same,viscosity,691.9 K,1.719 ± 0.069 mPa·s
same,viscosity,709.7 K,1.627 ± 0.065 mPa·s
same,viscosity,714.6 K,1.537 ± 0.062 mPa·s
same,viscosity,732.4 K,1.564 ± 0.063 mPa·s
same,viscosity,752.1 K,1.43 ± 0.057 mPa·s
